For two molecules, Activity, inhibition and Kd results are on record in ChEMBL document CHEMBL5126590 (Bioorg Med Chem, 2022).

The target in assay [1] is T1, Interstitial collagenase (Homo sapiens) (UniProt P03956).
T1 sequence (whole entry): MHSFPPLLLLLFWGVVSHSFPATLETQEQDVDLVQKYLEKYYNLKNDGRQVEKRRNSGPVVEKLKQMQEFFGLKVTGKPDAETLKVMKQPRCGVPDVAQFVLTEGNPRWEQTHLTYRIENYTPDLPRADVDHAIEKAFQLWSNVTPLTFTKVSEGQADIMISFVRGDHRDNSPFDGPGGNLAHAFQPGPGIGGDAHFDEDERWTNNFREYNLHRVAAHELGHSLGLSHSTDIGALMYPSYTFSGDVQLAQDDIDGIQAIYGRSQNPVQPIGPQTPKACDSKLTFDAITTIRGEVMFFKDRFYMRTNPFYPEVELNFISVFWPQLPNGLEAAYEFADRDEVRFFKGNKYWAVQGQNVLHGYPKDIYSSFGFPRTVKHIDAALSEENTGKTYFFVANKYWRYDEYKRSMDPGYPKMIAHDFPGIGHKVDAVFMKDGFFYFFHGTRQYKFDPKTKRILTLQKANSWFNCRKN
Description: (§1) Binding affinity to human MMP-1 catalytic domain (100 to 269 residues) expressed in Escherichia coli BL21 Star (DE3) by SPR analysis. The conditions noted are these: DDE = dose-dependent effect. Background: Surface plasmon resonance follows binding to a sensor surface in real time, without labels.

Assay [2] addresses T1, Interstitial collagenase (Homo sapiens). In words: Inhibition of MMP-1 (unknown origin) using FRET substrate preincubated for 5 mins followed by substrate addition and measured after 30 mins by fluorescence assay. The conditions noted are these: dose 25-100 µM, time 35.0 min, DDE = dose-dependent effect.
In assay [3] the target is Actin, cytoplasmic 1 (Mus musculus) (UniProt P60710). In words: Binding affinity to beta-actin in mouse B16-F10 cell lysate by Western blot analysis. The format is subcellular.
Assay [4] concerns the target Mitogen-activated protein kinase kinase kinase 11 (Mus musculus) (UniProt Q80XI6). In words: Binding affinity to MLK3 in mouse B16-F10 cell lysate by pull down assay. The format is subcellular.
Assay [5] concerns B16-F10. Description: Binding affinity to MMP-1 in mouse B16-F10 cell lysate by pull down assay. The format is subcellular.
Assay [6] deals with Actin, cytoplasmic 1 (Mus musculus) (UniProt P60710). Description: Binding affinity to beta-actin in mouse B16-F10 cell lysate by pull down assay. The format is subcellular.
A further assay addresses T2, Interstitial collagenase (Homo sapiens, UniProt P03956).
T2 sequence (P03956 whole entry): T1 sequence (whole entry)
The assay is described as §1.

Assay [7] concerns the target Heat shock cognate 71 kDa protein (Mus musculus) (UniProt P63017). In words: Binding affinity to HSP73 in mouse B16-F10 cell lysate by pull down assay. The format is subcellular.
Assay [8] has the same target. In words: Binding affinity to HSP73 in mouse B16-F10 cell lysate by Western blot analysis. The format is subcellular. (In western blotting, separated proteins are transferred to a membrane and probed.)
For assay [9], the system named is B16-F10. Description: Binding affinity to MMP-1 in mouse B16-F10 cell lysate by Western blot analysis. The format is subcellular.
Assay [10] deals with T1, Interstitial collagenase (Homo sapiens). Description: Binding affinity to human 15N-labelled MMP-1 catalytic domain (100 to 269 residues) expressed in Escherichia coli BL21 Star (DE3) assessed as chemical shift perturbation at F97 residue at 500 uM by 1H-15N HSQC spectra analysis.
Assay [11] shares this target. Description: Binding affinity to human 15N-labelled MMP-1 catalytic domain (100 to 269 residues) expressed in Escherichia coli BL21 Star (DE3) assessed as chemical shift perturbation at E99 residue at 500 uM by 1H-15N HSQC spectra analysis.

Activity calls are given as the source filed them. The calls are words filed in the database; no cut-off is given here. Bounds are passed on as bounds.

Heat shock cognate 71 kDa protein (Mus musculus), sequence (P63017 whole entry): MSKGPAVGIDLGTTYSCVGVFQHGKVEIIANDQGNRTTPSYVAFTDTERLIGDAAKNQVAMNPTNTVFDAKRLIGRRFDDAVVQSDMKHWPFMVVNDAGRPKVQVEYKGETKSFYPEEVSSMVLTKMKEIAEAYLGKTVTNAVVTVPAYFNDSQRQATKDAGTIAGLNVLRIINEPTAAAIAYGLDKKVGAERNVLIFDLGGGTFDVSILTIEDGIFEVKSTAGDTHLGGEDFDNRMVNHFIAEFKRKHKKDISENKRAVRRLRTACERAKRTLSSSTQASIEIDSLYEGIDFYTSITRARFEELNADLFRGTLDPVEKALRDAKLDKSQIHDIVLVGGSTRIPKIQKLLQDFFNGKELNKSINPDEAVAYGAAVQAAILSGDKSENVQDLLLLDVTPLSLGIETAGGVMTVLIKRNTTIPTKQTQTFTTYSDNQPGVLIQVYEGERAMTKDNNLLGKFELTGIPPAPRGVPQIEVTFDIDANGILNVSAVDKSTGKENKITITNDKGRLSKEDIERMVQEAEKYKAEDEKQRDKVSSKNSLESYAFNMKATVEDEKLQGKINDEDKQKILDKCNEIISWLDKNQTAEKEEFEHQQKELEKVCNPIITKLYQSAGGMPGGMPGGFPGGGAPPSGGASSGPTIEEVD
Mitogen-activated protein kinase kinase kinase 11 (Mus musculus), sequence (Q80XI6 whole entry, looked up): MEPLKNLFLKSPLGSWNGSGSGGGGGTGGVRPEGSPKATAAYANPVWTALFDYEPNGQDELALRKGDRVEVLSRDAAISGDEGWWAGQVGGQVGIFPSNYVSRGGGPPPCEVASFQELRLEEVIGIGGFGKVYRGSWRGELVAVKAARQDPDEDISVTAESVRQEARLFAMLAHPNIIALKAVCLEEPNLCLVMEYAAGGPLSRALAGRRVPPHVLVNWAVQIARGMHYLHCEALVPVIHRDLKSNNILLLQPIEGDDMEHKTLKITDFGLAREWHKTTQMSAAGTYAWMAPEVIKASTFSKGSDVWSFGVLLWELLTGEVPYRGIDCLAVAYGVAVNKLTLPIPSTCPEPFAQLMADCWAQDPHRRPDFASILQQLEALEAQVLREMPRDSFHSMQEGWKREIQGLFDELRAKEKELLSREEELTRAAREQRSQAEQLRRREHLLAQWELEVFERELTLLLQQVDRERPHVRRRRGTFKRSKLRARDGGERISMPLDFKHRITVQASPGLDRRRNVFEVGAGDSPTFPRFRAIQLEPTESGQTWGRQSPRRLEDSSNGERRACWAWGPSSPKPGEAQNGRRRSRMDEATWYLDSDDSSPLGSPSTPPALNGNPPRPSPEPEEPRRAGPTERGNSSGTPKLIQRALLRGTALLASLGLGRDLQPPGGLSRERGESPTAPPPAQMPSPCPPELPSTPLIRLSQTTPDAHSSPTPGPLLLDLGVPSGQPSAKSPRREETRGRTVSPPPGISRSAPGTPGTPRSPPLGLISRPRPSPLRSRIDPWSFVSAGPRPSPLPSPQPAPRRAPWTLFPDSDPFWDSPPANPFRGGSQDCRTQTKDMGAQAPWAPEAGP

As to `O=c1c(O)c(-c2ccc(O)c(O)c2)oc2cc(O)cc(O)c12`, in [1], the Activity result was “Dde”. Also, the inhibition result in assay [2] was “Dde”.

On to `COc1c(-c2ccc(O)c(O)c2)oc2cc(O)cc(O)c2c1=O` [3-O-METHYLQUERCETIN], for which the outcome (in assay [3]; in assay [4]; with B16-F10 [5]; in [6]; in assay [7]; in assay [8]) was Active. Further, in the assay with B16-F10 [9], the outcome was Active. At Interstitial collagenase, the dissociation constant Kd – broadly, the concentration at which binding is half-saturated – was 21.7 µM. Moreover, the Activity entry was “Dde” in assay [1], 0.05 ppm in assay [10] and above 0.03 ppm in assay [11]. Besides, the inhibition result in assay [2] is “Dde”.
